These results are taken from the METLIN SMRT retention time set (Domingo-Almenara et al. 2019).

This series in a line: gradient 5% acetonitrile 3 min, to 50% in 2 min, to 85% in 15 min, held 3 min, 100 µL/min. The conditions noted are these: column: Zorbax Extend-C18 2.1 x 50 mm; eluents: water / acetonitrile, 0.1% formic acid. An outline of the steps:
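Retention time was recorded from adduct peaks, which were picked computationally and each inspected manually. Pure standards ran in mixtures of ~100 molecules on HPLC coupled to a quadrupole time-of-flight mass spectrometer, in positive and negative ionization mode, through a Zorbax Extend-C18 column (2.1 × 50 mm, 1.8 μm) at 100 μL/min. Eluents were water and acetonitrile, each with 0.1% formic acid.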
Compound `CCOc1ccccc1-n1ccn(Cc2nc(-c3ccc(C)cc3)no2)c(=O)c1=O` displayed an RP-LC retention time of 920 s.
In turn, `Cc1ccc(-n2nc(N3CCCN(S(=O)(=O)Cc4ccccc4)CC3)ccc2=O)cc1C` came in with an RP-LC retention time of 912 s.
Next, `CC(C)c1nc(N2CCN(c3ccccc3)CC2)ncc1C(=O)O`: 868 s.
As for `CCc1nn2c(CNC(=O)c3ccc(C)c(C)c3)c(-c3ccccc3)nc2s1`, the RP-LC retention time was 983 s.
In the case of `COCCNc1c(-c2cccc(F)c2)nc2sc(C(=O)NC3CCCC3)c(C)n12` it was 917 s.
Next, `Cn1c(=O)c(N2CCC(NC(=O)Nc3ccc(F)c(Cl)c3)CC2)nc2ccccc21`: 971 s; `Cc1ccn2cc(-c3cccc(S(=O)(=O)N4CC(C)OC(C)C4)c3)nc2c1` (stereo not given): 647 s; `O=C(Nc1ccc2c(c1)N(C(=O)C1CCCO1)CC2)c1ccc(F)c(F)c1` (stereo not given): 771 s.
In turn, `Cc1ccc(CNC(=O)C2(C)CN(S(C)(=O)=O)CC(=O)N2c2cc(C)cc(C)c2)cc1` (stereo not given) had an RP-LC retention time of 860 s.
Next, `Cc1c(C(=O)N2CCOCC2)cnn1-c1cc(-c2nc(C(C)(C)C)no2)ccn1`: 931 s; `Cc1cccc(CNC(=O)CN2CCN(Cc3ccc(F)cc3)C(=O)C2=O)c1`: 740 s.
`c1cn(-c2cc(N3CCSCC3)ncn2)cn1` showed an RP-LC retention time of 591 s.
In the case of `COCCN(CCOC)c1nc(-c2ccc([N+](=O)[O-])cc2)nc2ccccc12` it was 849 s.
Next, `c1ccc(-c2nc(-c3ccc(-n4cccn4)nc3)no2)cc1`: 1200 s; `COc1ccc(NC(=O)c2[nH]c3cc(C)sc3c2CN2CCOCC2)cc1OC`: 635 s; `CC1=NS(=O)(=O)N(C)C=C1C(=O)OCCC(C)C`: 966 s.
Next, `COc1ccc(OC)c(CNC(=O)NC2COc3ccc(OC)cc3C2)c1` (stereo not given): 810 s; `COc1ccc(-c2cc3nn(CC(=O)Nc4ccc(F)c(Cl)c4)c(=O)n3c(C)n2)cc1`: 992 s; `Cc1ccc(S(=O)(=O)Nc2ccc(Nc3cc(-n4cccn4)ncn3)cc2)c(C)c1`: 888 s.
Turning to `CCc1ccc(N2CC(c3noc(-c4ccc(F)cc4)n3)CC2=O)cc1` (stereo not given), the RP-LC retention time came to 1100 s.
In the case of `COc1ccc(NC(=O)Cc2csc3nc(-c4ccccc4)cn23)cc1OC` it was 703 s.
Consider `Cc1nc2ccn(Cc3ccco3)c(=O)c2cc1C(=O)NCCN1CCOCC1`, for which the RP-LC retention time came out at 585 s.
In turn, `CCOC(=O)CNC(=O)N1CCN(Cc2nc3cc(C)ccc3o2)CC1` came in with an RP-LC retention time of 616 s.
Turning to `O=C(Nc1cccnc1)C1CCCN(S(=O)(=O)c2c[nH]c(C(=O)N3CCCC3)c2)C1` (stereo not given), the RP-LC retention time was determined as 594 s.
In the case of `CC(C)n1c(=O)oc2cc(-c3noc(CCc4ccccc4)n3)ccc21` it was 1140 s.
For `Cc1oc2ncn(CC(=O)N3CCN(c4ccccn4)CC3)c(=O)c2c1C`, the RP-LC retention time came to 565 s.
In the case of `C=CCn1c(C)c(CC(=O)Nc2ccc(F)c(F)c2)c(=O)n2nc(-c3ccc(C)cc3)nc12` it was 838 s; in that of `Cc1ccc(NC(=O)Cn2cccc2-c2nnc(C3CC3)o2)c(Cl)c1`, 930 s; in that of `Cc1cc(N2CCN(C(=O)c3cncc(Br)c3)CC2)nc2ccccc12`, 623 s.
Next, `O=C(NCCC1CCN(C(=O)Nc2cc(F)ccc2F)CC1)c1ccsc1`: 737 s.
In the case of `CCN(CC)c1ccc(Nc2nc(-c3ccc(OC)cc3)cs2)cc1` it was 742 s.
Consider `Cc1nc(-c2csc(S(=O)(=O)N3CCC(C(=O)NCc4cccs4)CC3)c2)no1`, for which the RP-LC retention time came to 823 s.
Next, `CS(=O)(=O)NCC1CCC(C(=O)Nc2ccc3c(c2)Cc2ccccc2-3)CC1` (stereo not given): 840 s; `Cc1cc(C)nc(SCCCNC(=O)Nc2cc(C)on2)n1`: 663 s.
In the case of `CCn1c(=O)oc2cc(-c3noc(-c4ccc(C)c(F)c4)n3)ccc21` it was 1200 s; in that of `Cc1cc(NC(=O)Cn2cnc(-c3ccc(Cl)cc3)cc2=O)no1`, 735 s.
In the case of `Cc1cc(NC(=O)c2cccn2-c2cccnc2)ccc1Br`, the RP-LC retention time was 881 s.
In the case of `O=C(COc1ccc(F)cc1)N1CCN(C(=O)c2nnn3c2COC(c2ccc(Cl)cc2)C3)CC1` (stereo not given) it was 937 s; in that of `Cc1ccc(-c2cc3c(=O)n(Cc4noc(CN5CCCC5)n4)ccn3n2)c(C)c1`, 686 s; in that of `CCN1CCCc2cc(C(=O)NC3CCCCC3)sc21`, 1010 s.
In the case of `O=C(c1csc(-c2cccnc2)n1)N1CCN(c2ncccn2)CC1`, the RP-LC retention time stood at 648 s.
For the compound `CC(C)CNC(=O)/C=C\C(=O)O`, the RP-LC retention time amounted to 717 s.
Next, `CCc1noc(C2(NC(=O)c3cc(-c4ccccc4)n[nH]3)CCCCC2)n1`: 906 s; `Cc1noc(-c2nn(C)c3c2CN(C(=O)C2(c4ccccc4)CC2)CC3)n1`: 757 s.
With `CCn1cnc(S(=O)(=O)N2CCC(C(=O)Nc3ccc(OC)c(Cl)c3)CC2)c1`, the RP-LC retention time was found to be 724 s.
Next, `O=C(NCCCc1ccccc1)c1nnc(-c2ccc(S(=O)(=O)N3CCCC3)cc2)o1`: 971 s; `CC(C)CCNC(=O)Cn1cccc(-c2nc(-c3ccc(F)cc3)no2)c1=O`: 860 s.
Compound `Cc1ccc(N2CN(CC(=O)Nc3ccccc3C)S(=O)(=O)c3cccnc32)cc1` showed an RP-LC retention time of 813 s.
Next, `CCOC(=O)N1CCC(NC(=O)c2cn(-c3cccc(Cl)c3)nn2)CC1`: 795 s; `COc1ccccc1N1CCN(C(=O)C2CCN(c3c(C)n(C)c(=O)n(C)c3=O)CC2)CC1`: 718 s.
`CC(C)CN1CCN(S(=O)(=O)c2ccc(-c3nnc(C(C)C)o3)o2)CC1` came in with an RP-LC retention time of 652 s.
Next, `COC(=O)c1ccc2c(=O)n(CCc3ccccc3)c(N3CCCCCC3)nc2c1`: 1300 s; `CSc1ccc(-c2nc3cnccn3c2Nc2cccc(C(=O)O)c2)cc1`: 744 s.
`COc1ccc(-c2nc(C)cc(C)c2CNC(=O)C(C)(C)C)cc1` gave an RP-LC retention time of 613 s.
In the case of `COC1CN(c2cccc(F)c2)C12CCN(S(=O)(=O)c1cccc(F)c1)CC2` (stereo not given) it was 1200 s; in that of `CCOc1ccc(CCNC(=O)c2snc(C(=O)NCc3ccccc3)c2N)cc1OCC`, 1090 s; in that of `Cc1ccc(S(=O)(=O)N2C[C@@H](F)C[C@H]2C(=O)N2CCc3ccccc3C2)cc1Cl`, 1020 s.
In the case of `Cc1nn(Cc2nc(-c3ccc(NC(=O)c4cccs4)cc3)oc2C)c(C)c1C` it was 922 s.
The compound `CN1Cc2ccccc2-n2ccnc2C12CCN(C(=O)c1cccc(F)c1)CC2` gave an RP-LC retention time of 614 s.
In the case of `CCOc1ccccc1NC(=O)C1CCN(c2cnc(N3CCCCC3)nc2)CC1` it was 928 s.
In the case of `CC1(C)[C@H]2CC[C@](C)(C2)[C@H]1NS(=O)(=O)c1ccc(F)cc1` it was 1140 s; in that of `CCN1C(=O)C(C)(C(=O)Nc2ccc(F)c(Cl)c2)Oc2cccnc21` (stereo not given), 988 s.
In the case of `O=C(NCc1ccco1)C1CCN(c2cnc3nccnc3c2)CC1` it was 629 s; in that of `O=C(OCCN1CCN(C2=NS(=O)(=O)c3ccccc32)CC1)c1ccccc1`, 656 s.
In turn, `CC(=O)Nc1ccc(S(=O)(=O)NCC2(c3cccs3)CCOCC2)c(C)c1` showed an RP-LC retention time of 696 s.
Next, `CSc1nc2ccc3nc(NC(=O)C4=COCCO4)sc3c2s1`: 905 s; `COc1cccc(CNC2=NCCNC23CCN(S(=O)(=O)c2ccc(C)cc2)CC3)c1`: 717 s.
The compound `Cc1ccccc1Nc1c(-c2cccc(Br)c2)nc2ccc(Br)cn12` displayed an RP-LC retention time of 1150 s.
Turning to `CC1CCc2nc(NC(=O)c3cc(Cl)sc3Cl)sc2C1` (stereo not given), the RP-LC retention time was 1170 s.
In the case of `COCC(=O)Nc1nc(-c2ccc3c(c2)NC(=O)C(C)O3)c(C)s1` (stereo not given), the RP-LC retention time worked out at 720 s.
In the case of `Cc1cc(NC(=O)CSc2nnc(Cc3ccccc3)o2)no1` it was 716 s; in that of `O=C(c1cc2ccccc2oc1=O)N1CCCC(c2nnc(-c3ccccc3)o2)C1` (stereo not given), 793 s; in that of `COCCN(CC(=O)N1CCc2sccc2C1COc1cccc(F)c1)C(=O)C1CCCC1` (stereo not given), 999 s.
In turn, `O=C(c1csc(N2CCCC2)n1)N1CCOCC1` had an RP-LC retention time of 628 s.
Next, `Cc1ccc(-c2nnc(-c3nn(C)c4c3CN(S(=O)(=O)c3cccc(C)c3)CC4)o2)cc1`: 998 s.
Next, `CCCCS(=O)(=O)N1CCC(F)(c2nc(-c3ccccc3)no2)CC1`: 1080 s; `NC(=O)c1cc(-c2ccccc2)n[nH]1`: 623 s; `Cc1ccc(CNC(=O)c2ncn3c2C(=O)N(C2CC2)C(C)(C(=O)NCc2ccc(F)cc2)C3)cc1` (stereo not given): 799 s.
In the case of `O=C(CN1C(=O)CCc2cc(Br)ccc21)Nc1ccc2c(c1)OCCO2` it was 912 s; in that of `Cn1c(=O)c2c(nc3n(-c4ccc(O)cc4)c(-c4ccc(Cl)cc4)cn23)n(C)c1=O`, 813 s.
